21 molecules from PubChem BioAssay (NCI) can be followed below.

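Where inhibition never reached the appropriate level, the endpoint shown equals the highest concentration tested. Otherwise, values were interpolated linearly from a five-concentration, 48-hour dose response in 96-well plates. Here, GI50 denotes the concentration required for 50% inhibition of growth. TGI marks complete inhibition of growth.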

The subject of one assay is K-562 leukemia. Description: growth of human tumour cells (NCI), 48 h.
On to `N=C(N)c1ccc(-c2ccc(-c3cc(Cl)cc(Cl)c3)o2)nc1`, for which the GI50 is 1.5 µM and the TGI is 3.88 µM.
Turning to `CCOC(=O)CSc1nc(N)c2c(-c3ccc(OC)c(OC)c3)c3c(nc2n1)CCCC3`, the TGI was > 100 µM.
As to `CNC(=O)OC(C)CN1c2ccccc2Sc2ccc(Cl)cc21` (stereo unspecified), the TGI is > 10 µM.
On to `O=C(CCCCCCC(=O)Nc1ccc(N(CCCl)CCCl)cc1)NO`, for which the GI50 is 1.75 µM and the TGI is 12.3 µM.
The molecule `CN1CC[C@@]2(c3cccc(O)c3)CC(=O)/C(=C/c3ccccc3)[C@H]1C2` registered a TGI of 6.52 µM.
On the same count and under the same terms, in the case of `O=C(N/N=C(/c1ccccc1)C(F)(F)F)c1ccncc1` it was > 100 µM; in that of `ONc1ncnc2nc[nH]c12`, > 100 µM; in that of `CCCc1[nH]c(SCCCCCCCCSc2nc(-c3ccc(F)cc3)c(CCC)[nH]2)nc1-c1ccc(F)cc1`, > 100 µM.
On the same count and under the same terms, in the case of `O=S(=O)(O)c1ccc2cccc(N=Nc3c(O)ccc4ccccc34)c2c1` it was > 100 µM.
With `COc1ccc2nc(-c3ccc(-c4noc(-c5cc(OC)c(OC)c(OC)c5)n4)cc3)[nH]c2c1`, the GI50 was 1.2 µM and the TGI was > 100 µM.
The corresponding values for `COc1ccc(/C(=C2/O[C@@H]([C@H]3COC(C)(C)O3)[C@H]3OC(C)(C)O[C@@H]23)c2cc(OC)c(OC)c(OC)c2)cc1O` are 6.28 µM and > 100 µM.
`Cn1c(=O)c2c(nc(-n3nc(-c4ccc(Cl)cc4)cc3N)n2C)n(C)c1=O`: the TGI was > 100 µM.
The same measure, in the same setting: in the case of `CCS(=O)(=O)Nc1ccc(Nc2c3ccccc3nc3ccccc23)c(OC)c1` it was 14.6 µM; in that of `Cc1nc(N)nc(N)c1-c1ccc(Cl)c(Cl)c1`, > 100 µM; in that of `Cc1cccc2nc3c(C(=O)NCCN(C)C)cccc3cc12`, 8.22 µM.
Still for that read-out and setting: in the case of `C[C@]12CC[C@@H]3c4ccc(OP(=O)(O)O)cc4CC[C@H]3[C@@H]1CCC2=O` it was > 100 µM.
On the same count and under the same terms, in the case of `CCSCCC(N)C(=O)O` (stereo unspecified) it was > 100 µM; in that of `COc1ccc2nc(N/N=C/C(C)=N/Nc3cc(C)c4cc(OC)ccc4n3)cc(C)c2c1`, 9.81 µM.
In the case of `CN(C)CC(=O)Nc1ccc(Cn2nnc3c2C(=O)c2nnn(Cc4ccc(NC(=O)CN(C)C)cc4)c2C3=O)cc1`, the GI50 was 0.293 µM and the TGI is > 100 µM.

The next assay deals with M14 melanoma. Description: growth of human tumour cells (NCI), 48 h.
In the case of `CCN(CC)CC(C)Nc1ccc([N+](=O)[O-])c2sc3ccccc3c(=O)c12` (stereo unspecified), the GI50 is 1.68 µM and the TGI was determined as 4.03 µM.
The corresponding values for `N=C(N)c1ccc(-c2ccc(-c3cc(Cl)cc(Cl)c3)o2)nc1` are 1.9 µM and 3.63 µM.
On to `CCOC(=O)CSc1nc(N)c2c(-c3ccc(OC)c(OC)c3)c3c(nc2n1)CCCC3`, for which the TGI is > 100 µM.
On to `CNC(=O)OC(C)CN1c2ccccc2Sc2ccc(Cl)cc21` (stereo unspecified), for which the TGI is > 10 µM.
Turning to `O=C(CCCCCCC(=O)Nc1ccc(N(CCCl)CCCl)cc1)NO`, the GI50 was 2.43 µM and the TGI stood at 10.7 µM.
In turn, `CN1CC[C@@]2(c3cccc(O)c3)CC(=O)/C(=C/c3ccccc3)[C@H]1C2` returned a TGI of 30.4 µM.
In the case of `O=C(N/N=C(/c1ccccc1)C(F)(F)F)c1ccncc1`, the TGI was > 100 µM.
On the same count and under the same terms, in the case of `ONc1ncnc2nc[nH]c12` it was > 100 µM; in that of `CCCc1[nH]c(SCCCCCCCCSc2nc(-c3ccc(F)cc3)c(CCC)[nH]2)nc1-c1ccc(F)cc1`, > 100 µM.
Still for that read-out and setting: in the case of `O=S(=O)(O)c1ccc2cccc(N=Nc3c(O)ccc4ccccc34)c2c1` it was > 100 µM.
For the molecule `COc1ccc2nc(-c3ccc(-c4noc(-c5cc(OC)c(OC)c(OC)c5)n4)cc3)[nH]c2c1`, the GI50 is 5.47 µM and the TGI worked out at 22.7 µM.
Turning to `Cn1c(=O)c2c(nc(-n3nc(-c4ccc(Cl)cc4)cc3N)n2C)n(C)c1=O`, the TGI is > 100 µM.
Regarding `N=c1c2c(C(N)=O)cn(C3OC(CO)C(O)C3O)c2ncn1O` (stereo unspecified), the TGI is 0.506 µM.
The same measure, in the same setting: in the case of `Cc1nc(N)nc(N)c1-c1ccc(Cl)c(Cl)c1` it was > 100 µM; in that of `C[C@]12CC[C@@H]3c4ccc(OP(=O)(O)O)cc4CC[C@H]3[C@@H]1CCC2=O`, > 100 µM; in that of `CCSCCC(N)C(=O)O` (stereo unspecified), > 100 µM.
`COc1ccc2nc(N/N=C/C(C)=N/Nc3cc(C)c4cc(OC)ccc4n3)cc(C)c2c1` gave a TGI of 80.2 µM.
For `CN(C)CC(=O)Nc1ccc(Cn2nnc3c2C(=O)c2nnn(Cc4ccc(NC(=O)CN(C)C)cc4)c2C3=O)cc1`, the GI50 is 0.14 µM and the TGI was determined as 0.284 µM.

The test system of the next assay is MALME-3M melanoma. Description: growth of human tumour cells (NCI), 48 h.
As to `CCN(CC)CC(C)Nc1ccc([N+](=O)[O-])c2sc3ccccc3c(=O)c12` (stereo unspecified), the GI50 was 1.31 µM and the TGI was determined as 3.76 µM.
Take `CCOC(=O)CSc1nc(N)c2c(-c3ccc(OC)c(OC)c3)c3c(nc2n1)CCCC3`: the TGI is > 100 µM.
As for `CNC(=O)OC(C)CN1c2ccccc2Sc2ccc(Cl)cc21` (stereo unspecified), the TGI is > 10 µM.
Consider `O=C(CCCCCCC(=O)Nc1ccc(N(CCCl)CCCl)cc1)NO`, for which the GI50 was 0.507 µM and the TGI was 5.6 µM.
`CN1CC[C@@]2(c3cccc(O)c3)CC(=O)/C(=C/c3ccccc3)[C@H]1C2` came in with a TGI of 33.5 µM.
On to `O=C(N/N=C(/c1ccccc1)C(F)(F)F)c1ccncc1`, for which the TGI was > 100 µM.
`ONc1ncnc2nc[nH]c12`: the TGI was > 100 µM.
Regarding `O=S(=O)(O)c1ccc2cccc(N=Nc3c(O)ccc4ccccc34)c2c1`, the TGI is > 100 µM.
For `COc1ccc2nc(-c3ccc(-c4noc(-c5cc(OC)c(OC)c(OC)c5)n4)cc3)[nH]c2c1`, the GI50 was 1.67 µM and the TGI was 7.51 µM.
For the molecule `COc1ccc(/C(=C2/O[C@@H]([C@H]3COC(C)(C)O3)[C@H]3OC(C)(C)O[C@@H]23)c2cc(OC)c(OC)c(OC)c2)cc1O`, the GI50 is 9.96 µM and the TGI was > 100 µM.
